From patent publication US20230017786A1, “DEXTR[…] A DISEASE-MODIFYING TREATMENT FOR NEUROPSYCHIATRIC DISORDERS AND DISEASES” (priority 2020, published 2023)

Key:
Type in all cases: cell-based
[1] = molecular target: T1, human NMDA receptor GluN1-GluN2C (Homo sapiens, UniProt Q05586+Q14957); assay: FLIPR calcium assay, quinolinic acid, gentamicin, dextromethadone (Example 5 Part II), GluN1-GluN2C-CHO
T1 construct: expressed in transfected cells; host or cells: CHO
Experimental: (§1) Quinolinic acid or gentamicin CRCs were also produced, in presence of 10 μM glycine.
(§2) Test items were evaluated in FLIPR for their ability to modulate, alone or in combination, calcium entry in presence of […], using four CHO cell lines expressing diheteromeric human NMDA receptor (NMDAR): GluN-/GluN2A-CHO, GluN1-GluN2B-CHO, GluN1-GluN2C-CHO, GluN1-GluN2D-CHO.
(§3) The first aim of the study was to evaluate quinolinic acid or gentamicin CRC effect in the presence of 10 μM glycine.
(§4) FLIPR determination of intracellular calcium level was used as a read-out for NMDAR activation.
(§5) 400× compound plate was stored at −20° C. till FLIPR experimental day.
(§6) A 4× compound plate was generated from 400× compound plate by addition of up to 30 μl/well of compound buffer on FLIPR experimental day.
(§7) A FLIPR system was used to monitor intracellular calcium level in NMDAR cell lines, pre-loaded for 1 hour with Fluo-4, and then washed with assay buffer.
(§8) Y=Bottom+(Top−Bottom)/(1+10^((LogEC50−X)*HillSlope))
(§9) Test item CRC data were plotted by Prism 8 GraphPad software, in the different experimental conditions. And, column analysis, performed by Prism 8 GraphPad software, was one way ANOVA followed by Tukey's multiple comparisons test, with a single pooled variance.

[2] = molecular target: T2, human NMDA receptor GluN1-GluN2A (Homo sapiens, UniProt Q05586+Q12879); assay: FLIPR calcium assay, quinolinic acid, gentamicin, dextromethadone (Example 5 Part II), GluN1-GluN2A-CHO; parameters: calcium response (mean±SEM): unit not given here
T2 construct: expressed in transfected cells; host or cells: CHO
Experimental: as §1, §2, §3, §4, §5, §6, §7, §8, §9

[3] = molecular target: T3, recombinant human NMDAR GluN1 plus GluN2A (Homo sapiens, UniProt Q05586+Q12879); assay: FLIPR calcium assay, gentamicin as PAM (Example 5 Part I), GluN2A cell line; conditions: 10 μM test item; dextromethadone in presence and absence of 10 μM gentamicin
T3 construct: expressed in transfected cells; host or cells: CHO
Source text: (§10) A FLIPR calcium assay was used to profile gentamicin using stable cell lines expressing diheteromeric recombinant human NMDARs, containing GluN1 plus one amongst GluN2A, GluN2B, GluN2C or GluN2D subunit.

[4] = molecular target: T4, recombinant human NMDAR GluN1 plus GluN2C (Homo sapiens, UniProt Q05586+Q14957); assay: FLIPR calcium assay, gentamicin as PAM (Example 5 Part I), GluN2C cell line; conditions: 10 μM test item; dextromethadone in presence and absence of 10 μM gentamicin
T4 construct: expressed in transfected cells; host or cells: CHO
Source text: as §10

[5] = molecular target: T5, recombinant human NMDAR GluN1 plus GluN2B (Homo sapiens, UniProt Q05586+Q13224); assay: FLIPR calcium assay, gentamicin as PAM (Example 5 Part I), GluN2B cell line; conditions: 10 μM test item; dextromethadone in presence and absence of 10 μM gentamicin
T5 construct: expressed in transfected cells; host or cells: CHO
Source text: as §10

[6] = molecular target: T6, human NMDA receptor GluN1-GluN2B (Homo sapiens, UniProt Q05586+Q13224); assay: FLIPR calcium assay, quinolinic acid, gentamicin, dextromethadone (Example 5 Part II), GluN1-GluN2B-CHO
T6 construct: expressed in transfected cells; host or cells: CHO
Experimental: as §1, §2, §3, §4, §5, §6, §7, §8, §9

[7] = molecular target: T7, human NMDA receptor GluN1-GluN2D (Homo sapiens, UniProt O15399+Q05586); assay: FLIPR calcium assay, quinolinic acid, gentamicin, dextromethadone (Example 5 Part II), GluN1-GluN2D-CHO
T7 construct: expressed in transfected cells; host or cells: CHO
Experimental: as §1, §2, §3, §4, §5, §6, §7, §8, §9

[8] = molecular target: T8, recombinant human NMDAR GluN1 plus GluN2D (Homo sapiens, UniProt O15399+Q05586); assay: FLIPR calcium assay, gentamicin as PAM (Example 5 Part I), GluN2D cell line; conditions: 10 μM test item; dextromethadone in presence and absence of 10 μM gentamicin
T8 construct: expressed in transfected cells; host or cells: CHO
Source text: as §10

[9] = CRC in presence of 10 μM glycine
[10] = CRC in presence of 10 μM glycine, no glutamate
[11] = gentamicin CRC, max 100, 10 μM glycine

T2 sequence (Q12879 23-1464, other chains not shown): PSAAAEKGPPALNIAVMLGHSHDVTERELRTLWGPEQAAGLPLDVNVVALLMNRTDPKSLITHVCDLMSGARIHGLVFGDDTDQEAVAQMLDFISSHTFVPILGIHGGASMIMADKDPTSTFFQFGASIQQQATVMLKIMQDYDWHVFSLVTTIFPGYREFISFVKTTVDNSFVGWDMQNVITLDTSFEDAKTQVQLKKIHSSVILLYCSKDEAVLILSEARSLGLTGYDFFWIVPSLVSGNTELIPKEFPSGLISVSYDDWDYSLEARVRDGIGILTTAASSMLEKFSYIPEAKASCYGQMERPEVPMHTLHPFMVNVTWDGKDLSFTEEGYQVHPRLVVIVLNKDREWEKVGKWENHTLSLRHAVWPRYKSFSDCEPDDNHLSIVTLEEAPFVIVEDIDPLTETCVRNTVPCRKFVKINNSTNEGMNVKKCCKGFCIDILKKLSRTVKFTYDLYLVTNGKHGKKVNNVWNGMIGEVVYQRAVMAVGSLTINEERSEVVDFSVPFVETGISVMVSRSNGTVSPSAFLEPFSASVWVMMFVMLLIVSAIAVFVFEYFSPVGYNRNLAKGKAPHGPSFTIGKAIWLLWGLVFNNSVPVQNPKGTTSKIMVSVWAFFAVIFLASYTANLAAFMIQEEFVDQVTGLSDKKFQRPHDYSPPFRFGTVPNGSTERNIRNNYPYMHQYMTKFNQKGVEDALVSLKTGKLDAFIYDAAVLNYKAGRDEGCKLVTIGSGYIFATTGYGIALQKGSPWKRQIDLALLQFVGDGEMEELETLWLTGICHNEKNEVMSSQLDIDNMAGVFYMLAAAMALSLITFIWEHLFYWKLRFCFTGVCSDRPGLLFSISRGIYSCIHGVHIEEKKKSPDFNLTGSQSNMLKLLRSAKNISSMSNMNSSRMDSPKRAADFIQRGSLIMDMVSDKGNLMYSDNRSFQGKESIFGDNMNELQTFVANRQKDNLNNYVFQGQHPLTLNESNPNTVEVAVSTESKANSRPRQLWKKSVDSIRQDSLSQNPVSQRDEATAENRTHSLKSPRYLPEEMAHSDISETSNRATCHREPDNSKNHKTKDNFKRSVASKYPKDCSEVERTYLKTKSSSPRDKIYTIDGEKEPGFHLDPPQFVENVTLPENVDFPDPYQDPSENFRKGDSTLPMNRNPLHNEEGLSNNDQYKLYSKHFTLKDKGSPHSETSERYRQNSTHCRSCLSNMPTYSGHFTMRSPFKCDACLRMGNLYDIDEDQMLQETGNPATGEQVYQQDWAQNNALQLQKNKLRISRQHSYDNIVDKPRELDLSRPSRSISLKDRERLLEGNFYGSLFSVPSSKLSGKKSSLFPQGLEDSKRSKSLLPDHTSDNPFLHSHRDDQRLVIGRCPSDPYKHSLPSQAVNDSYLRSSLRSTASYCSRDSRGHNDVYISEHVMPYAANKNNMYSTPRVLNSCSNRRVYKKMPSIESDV
T3 sequence (Q12879 23-1464, other chains not shown): as above
T8 sequence (O15399 28-1336, other chains not shown): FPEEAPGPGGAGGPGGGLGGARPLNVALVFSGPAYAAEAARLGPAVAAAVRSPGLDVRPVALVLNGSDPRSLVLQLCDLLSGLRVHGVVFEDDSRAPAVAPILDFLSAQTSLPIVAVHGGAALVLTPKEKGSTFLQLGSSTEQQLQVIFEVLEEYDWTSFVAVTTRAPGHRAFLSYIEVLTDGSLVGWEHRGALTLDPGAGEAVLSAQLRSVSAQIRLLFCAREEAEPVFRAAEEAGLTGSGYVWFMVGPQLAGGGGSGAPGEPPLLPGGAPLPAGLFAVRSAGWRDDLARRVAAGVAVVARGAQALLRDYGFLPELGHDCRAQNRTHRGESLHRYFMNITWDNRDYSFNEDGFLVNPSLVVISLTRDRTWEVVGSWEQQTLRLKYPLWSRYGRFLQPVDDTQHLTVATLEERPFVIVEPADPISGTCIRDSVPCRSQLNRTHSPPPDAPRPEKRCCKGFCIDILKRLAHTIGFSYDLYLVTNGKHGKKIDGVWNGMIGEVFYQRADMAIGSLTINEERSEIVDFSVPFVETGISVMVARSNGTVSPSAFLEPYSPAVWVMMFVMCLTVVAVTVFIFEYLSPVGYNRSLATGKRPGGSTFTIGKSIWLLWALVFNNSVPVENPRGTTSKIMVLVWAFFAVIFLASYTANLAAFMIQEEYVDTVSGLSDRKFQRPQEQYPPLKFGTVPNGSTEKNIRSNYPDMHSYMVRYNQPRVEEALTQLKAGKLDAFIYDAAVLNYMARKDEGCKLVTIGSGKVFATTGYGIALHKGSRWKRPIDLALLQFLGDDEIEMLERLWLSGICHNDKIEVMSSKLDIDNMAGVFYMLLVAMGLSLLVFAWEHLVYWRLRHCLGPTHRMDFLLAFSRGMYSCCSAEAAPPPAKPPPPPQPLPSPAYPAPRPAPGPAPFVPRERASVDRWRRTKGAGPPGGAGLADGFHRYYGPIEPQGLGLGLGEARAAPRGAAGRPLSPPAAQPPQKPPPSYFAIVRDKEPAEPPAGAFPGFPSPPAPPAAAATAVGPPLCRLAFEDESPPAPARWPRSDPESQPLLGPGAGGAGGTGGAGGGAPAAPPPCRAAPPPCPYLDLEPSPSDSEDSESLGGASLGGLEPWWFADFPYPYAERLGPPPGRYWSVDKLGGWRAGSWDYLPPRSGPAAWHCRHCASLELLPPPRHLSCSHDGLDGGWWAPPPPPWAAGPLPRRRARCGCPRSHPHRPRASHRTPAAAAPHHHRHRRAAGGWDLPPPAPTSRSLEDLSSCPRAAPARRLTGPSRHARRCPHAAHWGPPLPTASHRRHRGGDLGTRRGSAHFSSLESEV
T7 sequence (O15399 28-1336, other chains not shown): as above

## Gentamicin sulfate
[1]; 10 μM glycine
  EC50: >100 mg/L
[1]; 1000 μM QA + 10 μg/ml GENT, 10 μM glycine, GluN2C, n=42
  calcium response (mean±SEM): 5.6 ± 0.4
[1]; [9]
  Minimal response (%): −8.2%
[1]; [10]
  pEC50: <4
[1]; [11]
  Response at max conc (%): 0.03%
[2]; 10 μM glycine
  EC50: >100 mg/L
[2]; 10 μg/ml gentamicin, 10 μM glycine
  % effect on calcium entry, 1000 μM quinolinic acid plus gentamicin: 47±1.1%
[2]; 1000 μM QA + 10 μg/ml GENT, 10 μM glycine, GluN2A, n=42
  calcium response (mean±SEM): 47 ± 1.1
[2]; [9]
  Minimal response (%): −3.3%
[2]; [10]
  pEC50: <4
[2]; [11]
  Response at max conc (%): 0.1%
[3]
  calcium entry induced by 0.04 μM L-glutamate: significantly increased
  calcium entry induced by 0.2 μM L-glutamate: significantly increased
  calcium entry induced by 10 μM L-glutamate: significantly decreased
[4]
  calcium entry induced by 0.04 μM L-glutamate: significantly increased
  calcium entry induced by 10 μM L-glutamate: significantly decreased
[5]
  calcium entry induced by 0.04 μM L-glutamate: significantly increased
  calcium entry induced by 0.2 μM L-glutamate: significantly increased
  calcium entry induced by 10 μM L-glutamate: did not modify
[6]; 10 μM glycine
  EC50: >100 mg/L
[6]; 1000 μM QA + 10 μg/ml GENT, 10 μM glycine, GluN2B, n=42
  calcium response (mean±SEM): 37 ± 1.4
[6]; [9]
  Minimal response (%): −3.7%
[6]; [10]
  pEC50: <4
[6]; [11]
  Response at max conc (%): 0.7%
[7]; 10 μM glycine
  EC50: >100 mg/L
[7]; 1000 μM QA + 10 μg/ml GENT, 10 μM glycine, GluN2D, n=42
  calcium response (mean±SEM): 53 ± 1.7
[7]; [9]
  Minimal response (%): −3.2%
[7]; [10]
  pEC50: <4
[7]; [11]
  Response at max conc (%): 1.0%
[8]
  calcium entry induced by 0.04 μM L-glutamate: significantly increased
  calcium entry induced by 0.2 μM L-glutamate: decreased calcium entry
  calcium entry induced by 10 μM L-glutamate: did not modify
